The results in this text go back to PMC5760651, “Peptidomimetic blockade of MYB in acute myeloid leukemia” (Nature Communications, 2018).

A short description of series [1]: Plasma pharmacokinetics of BIO-MYBMIM, spectrophotometric avidin assay. As to conditions: C57BL/6J mice, single dose 25 mg/kg IP. It is filed as in vivo, mouse. On the procedure: All mouse experiments were carried out in accordance with the Memorial Sloan Kettering Institutional Animal Care and Use Committee. For toxicity studies, female C57BL/6J mice (The Jackson Laboratory, Bar Harbor, Maine, USA) were treated with MYBMIM peptide suspended in PBS and administered daily through intraperitoneal injection at a dose of 25 mg/kg for a total of 7 days. Mice were sacrificed at the end of treatment for hematologic, biochemical and histologic analyses. For pharmacokinetic studies, C57BL/6J mice (The Jackson Laboratory, Bar Harbor, Maine, USA) were treated with a single IP injection of 25 mg/kg BIO-MYBMIM, and blood plasma was collected 30 min, 2 h, 4 h, and 24 h post-injection. Quantification of BIO-MYBMIM was measured using the Quant-Tag Biotin kit (Vector Labs, cat. # BDK-2000) following the manufacturer instructions. For patient-derived xenografts, two hundred thousand primary AML MLL-rearranged leukemia cells were suspended in […] of PBS and transplanted via tail vein injection into 8-week-old sublethally irradiated (200 rad) female NOD.Cg-Prkdc(scid)Il2rg(tm1Wjl)/SzJ mice (The Jackson Laboratory, Bar Harbor, Maine, USA). […] Mice were treated from days 3–17 of this study for a total of 14 days and then monitored daily with clinical examination for survival analysis.

In series [2] the test system is MOLM-13, MV-411, ML-2 and HL-60 cells. The experiment in a line: Cell viability of AML cell lines. It is filed as cell-based, human. As to conditions: 6 days, 20 μM TG1, TG2 or TG3, 10 and 20 μM MYBMIM, peptide replacement every 48 h, compared to untreated control. On the procedure: (§1) Cells were resuspended and plated at a concentration of 2 × 10^5 cells in 200 μl in 96-well tissue culture plates. Media with peptides was replaced every 48 h. To assess the number of viable cells, cells were resuspended in PBS and 10 µl of suspension was mixed in a 1:1 ratio with 0.4% Trypan Blue (Thermo Fisher) and counted using a hemacytometer (Hausser Scientific, Horsham, PA, USA). To assess viability using an ATP-based assay, cell viability was assessed using the CellTiter-Glo Luminescent Viability assay, according to the manufacturer’s instructions (Promega). Luminescence was recorded using the Infinite M1000Pro plate reader using integration time of 250 ms (Tecan).

In series [3] the test system is MOLM13, OCIAML2, and K562 cells. The experiment in a line: Cell viability with L-amino acid containing peptides. It is filed as cell-based. As to conditions: 20 μM, 2 days, three biological replicates. How it is done: as §1
Supplementary Figure 5. Viability of MOLM13, OCIAML2, and K562 cells, treated for 2 days with control PBS (black), 20 μM TATMYG (blue), and 20 μM TATMYB (red). Error bars […]
between treatment conditions.
(1 picture or pasted object on this page, not shown here)

For series [4], the target named is FITC-conjugated MYB peptide (L-amino acid containing counterpart of MYBMIM) (UniProt P10242). Description: MST.
Series [5] deals with T1, purified recombinant CBP KIX domain (UniProt P45481 586-665).
T1 construct: also called KIX domain of CBP; source: E. coli BL21(DE3), pGEX-KIX, purified (glutathione agarose, thrombin cleavage, MonoS cation exchange)
T1 sequence (P45481 586-665): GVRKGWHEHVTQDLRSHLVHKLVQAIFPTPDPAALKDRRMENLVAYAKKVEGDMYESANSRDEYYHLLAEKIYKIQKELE
Description: MST. As to conditions: both partners purified.

Non-standard residues stand in square brackets, D forms with d. Residues, ends and D or L forms follow the SMILES beside them. No end group written: not given here. *: point of attachment. Biotin = O=C1N[C@H]2[C@H](CS[C@H]2CCCCC(=O)*)N1 Where only a bound is given, the exact number is not on record here.

On to `CC[C@@H](C)[C@@H](NC(=O)[C@@H](CCCCN)NC(=O)[C@@H](CCC(=O)O)NC(=O)[C@@H](CC(C)C)NC(=O)[C@@H](CCC(=O)O)NC(=O)[C@@H](CC(C)C)NC(=O)[C@@H](CC(C)C)NC(=O)[C@@H](CC(C)C)NC(=O)[C@@H](CCSC)NC(=O)[C@@H](CO)NC(=O)[C@H](NC(=O)[C@@H](CCC(=O)O)NC(=O)[C@@H](CC(N)=O)NC(=O)[C@@H](CCC(=O)O)NC(=O)[C@@H](CC(C)C)NC(=O)[C@@H](CCCCN)NC(C)=O)[C@H](C)O)C(=O)N[C@H](CCCNC(=N)N)C(=O)N[C@H](CCCCN)C(=O)NCC(=O)NCC(=O)N[C@H](CCCNC(=N)N)C(=O)N[C@H](CCCNC(=N)N)C(=O)N[C@H](CCCNC(=N)N)C(=O)N[C@H](CCC(N)=O)C(=O)N[C@H](CCCNC(=N)N)C(=O)N[C@H](CCCNC(=N)N)C(=O)N[C@H](CCCCN)C(=O)N[C@H](CCCCN)C(=O)N[C@H](CCCNC(=N)N)C(=O)NCC(=O)N[C@H](Cc1ccc(O)cc1)C(=O)N[C@H](CCCCNC(=O)CCCC[C@@H]1SC[C@@H]2NC(=O)N[C@@H]21)C(N)=O` [BIO-MYBMIM] (Ac-[dK][dL][dE][dN][dE][dT][dS][dM][dL][dL][dL][dE][dL][dE][dK][dI][dR][dK]GG[dR][dR][dR][dQ][dR][dR][dK][dK][dR]G[dY][dK](Biotin)-NH2), for which the Plasma elimination result in series [1] was “biphasic elimination”. In addition, in series [1] (plasma collected at 30 min, 2 h, 4 h, 24 h), the “Time of peak plasma peptide levels post injection” value is at most 30 min.
For `CC[C@@H](C)[C@@H](NC(=O)[C@@H](CCCCN)NC(=O)[C@@H](CCC(=O)O)NC(=O)[C@@H](CC(C)C)NC(=O)[C@@H](CCC(=O)O)NC(=O)[C@@H](CC(C)C)NC(=O)[C@@H](CC(C)C)NC(=O)CNC(=O)[C@@H](CCSC)NC(=O)[C@@H](CO)NC(=O)[C@H](NC(=O)[C@@H](CCC(=O)O)NC(=O)[C@@H](CC(N)=O)NC(=O)[C@@H](CCC(=O)O)NC(=O)[C@@H](CC(C)C)NC(=O)[C@@H](CCCCN)NC(C)=O)[C@H](C)O)C(=O)N[C@H](CCCNC(=N)N)C(=O)N[C@H](CCCCN)C(=O)NCC(=O)NCC(=O)N[C@H](CCCNC(=N)N)C(=O)N[C@H](CCCNC(=N)N)C(=O)N[C@H](CCCNC(=N)N)C(=O)N[C@H](CCC(N)=O)C(=O)N[C@H](CCCNC(=N)N)C(=O)N[C@H](CCCNC(=N)N)C(=O)N[C@H](CCCCN)C(=O)N[C@H](CCCCN)C(=O)N[C@H](CCCNC(=N)N)C(=O)NCC(=O)N[C@H](Cc1ccc(O)cc1)C(N)=O` [TG1] (Ac-[dK][dL][dE][dN][dE][dT][dS][dM]G[dL][dL][dE][dL][dE][dK][dI][dR][dK]GG[dR][dR][dR][dQ][dR][dR][dK][dK][dR]G[dY]-NH2), the “Growth of AML cell lines” value in series [2] is “inactive”.
For `CC[C@@H](C)[C@@H](NC(=O)[C@@H](CCCCN)NC(=O)[C@@H](CCC(=O)O)NC(=O)[C@@H](CC(C)C)NC(=O)[C@@H](CCC(=O)O)NC(=O)[C@@H](CC(C)C)NC(=O)[C@@H](CC(C)C)NC(=O)CNC(=O)[C@@H](CCSC)NC(=O)[C@@H](CO)NC(=O)[C@H](NC(=O)[C@@H](CCC(=O)O)NC(=O)[C@@H](CC(N)=O)NC(=O)CNC(=O)[C@@H](CC(C)C)NC(=O)[C@@H](CCCCN)NC(C)=O)[C@H](C)O)C(=O)N[C@H](CCCNC(=N)N)C(=O)N[C@H](CCCCN)C(=O)NCC(=O)NCC(=O)N[C@H](CCCNC(=N)N)C(=O)N[C@H](CCCNC(=N)N)C(=O)N[C@H](CCCNC(=N)N)C(=O)N[C@H](CCC(N)=O)C(=O)N[C@H](CCCNC(=N)N)C(=O)N[C@H](CCCNC(=N)N)C(=O)N[C@H](CCCCN)C(=O)N[C@H](CCCCN)C(=O)N[C@H](CCCNC(=N)N)C(=O)NCC(=O)N[C@H](Cc1ccc(O)cc1)C(N)=O` [TG2] (Ac-[dK][dL]G[dN][dE][dT][dS][dM]G[dL][dL][dE][dL][dE][dK][dI][dR][dK]GG[dR][dR][dR][dQ][dR][dR][dK][dK][dR]G[dY]-NH2), the “Growth of AML cell lines” value in series [2] was “inactive”.
As for “Ac-YGRKKRRQRRRGGKRIKELELLLMSTENELK-NH2 [TATMYB]”, the Viability result in series [3] is recorded as “no significant differences”.
For “Ac-YGRKKRRQRRRGGKRIKELELLLMSTENGLK-NH2 [TATMYG]”, the Viability entry in series [3] is given as “no significant differences”.
“purified recombinant CBP KIX domain (from UniProt P45481 586-665) (domain or fragment)” yielded a Kd in series [4] of 4.2 µM.
In the case of [dK][dL]G[dN][dE][dT][dS][dM]G[dL][dL][dE][dL][dE][dK][dI]G[dK]GG[dR][dR][dR][dQ][dR][dR][dK][dK][dR]G[dY]-NH2 (also: FITC-conjugated, site not given here) [FITC-conjugated TG3], the Kd in series [5] worked out at 114 ± 36.6 µM.
For the molecule [dK][dL]G[dN][dE][dT][dS][dM]G[dL][dL][dE][dL][dE][dK][dI][dR][dK]GG[dR][dR][dR][dQ][dR][dR][dK][dK][dR]G[dY]-NH2 (also: FITC-conjugated, site not given here) [FITC-conjugated TG2], the Kd in series [5] is 75.1 ± 12.5 µM.
On to [dK][dL][dE][dN][dE][dT][dS][dM]G[dL][dL][dE][dL][dE][dK][dI][dR][dK]GG[dR][dR][dR][dQ][dR][dR][dK][dK][dR]G[dY]-NH2 (also: FITC-conjugated, site not given here) [FITC-conjugated TG1], for which the Kd in series [5] was 59.2 ± 12.4 µM.

B1: FITC-conjugated MYBMIM (peptide)
chain: [dK][dL][dE][dN][dE][dT][dS][dM][dL][dL][dL][dE][dL][dE][dK][dI][dR][dK]
modifications: also: FITC-conjugated, site not given here, retro-inverso TAT delivery segment not in chain
As for B1, in series [5], the Kd was found to be 21.3 ± 2.9 µM.
